Assay [1] addresses T1, human CRTH2 (Homo sapiens, UniProt Q9Y5Y4).
T1 sequence (Q9Y5Y4 1-395): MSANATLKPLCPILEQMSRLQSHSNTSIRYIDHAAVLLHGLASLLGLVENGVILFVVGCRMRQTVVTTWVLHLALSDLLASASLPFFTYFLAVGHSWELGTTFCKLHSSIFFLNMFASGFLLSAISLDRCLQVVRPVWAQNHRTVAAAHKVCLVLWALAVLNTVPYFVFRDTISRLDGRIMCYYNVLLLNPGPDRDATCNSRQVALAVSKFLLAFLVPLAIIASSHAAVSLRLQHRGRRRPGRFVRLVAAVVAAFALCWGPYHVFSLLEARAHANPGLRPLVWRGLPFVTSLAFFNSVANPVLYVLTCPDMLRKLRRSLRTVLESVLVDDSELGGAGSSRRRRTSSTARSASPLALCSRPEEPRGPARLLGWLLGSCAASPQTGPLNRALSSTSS
As to the kind of experiment: Calcium Flux Assay Using Fluorometric Imaging Plate Reader (FLIPR). Further details: expressed in transfected cells; host or cells: CHO-K1 previously transfected with G-alpha 16. Format: cell-based. Conditions: CHO-K1 cells with G-alpha 16 and human CRTH2; inhibition of DK-PGD2 ligand-induced Ca2+ flux. On the procedure: CHO-K1 cells previously transfected with G-alpha 16 were subsequently transfected with the human CRTH2 receptor and the neomycin resistance gene. Following selection in 800 μg/mL G418 (geneticin), individual clones were assayed for their receptor expression based on staining with an anti human CRTH2 IgG, followed by assaying for their response to 13,14-dihydro-15-keto Prostaglandin D2 (DK-PDG2) (ligand) in the Ca^2+ Flux assay. Positive clones were then cloned by limiting dilution cloning. The transfected cells were cultured in Ham's F-12 medium supplemented with 10% fetal bovine serum, 2 mM glutamine, 100 U/mL penicillin/100 μg/mL streptomycin, 200 μg/mL hygromycin B, and 800 μg/mL G418 (geneticin). Cells were harvested with trypsin-EDTA (trypsin-ethylenediaminetetraacetic acid) and counted using ViaCount® reagent (from Guava Technologies, Inc. which contains two DNA-binding dyes that enable the reagent user to distinguish between viable and non-viable cells). The cell suspension volume was adjusted to 2.5×10^5 cells/mL with complete growth media. Aliquots of 50 μL were dispensed into BD Falcon™ 384 well black/clear microplates (from BD Biosciences, a division of Becton, Dickinson and Company) and the microplates were placed in a 37° C. CO2 incubator overnight. The following day, the microplates were used in the assay.
Loading Buffer containing dye (from the FLIPR® Calcium 3 Assay Kit from Molecular Devices, a division of MDS Analytical Technologies and MDS Inc.) was prepared by dissolving the contents of one bottle into 200 mL Hank's Balanced Salt Solution containing 20 mM HEPES (4-(2-hydroxyethyl)-1-piperazineethanesulfonic acid) and 2.5 mM probenecid. Growth media was removed from the cell plates and 25 μL of Hank's Balanced Salt Solution (HBSS) containing 20 mM HEPES, 0.05% BSA and 2.5 mM probenecid was added to each well followed by 25 μL of diluted dye using a Multidrop dispenser. The plates were then incubated for 1 hour at 37° C.
During the incubation, test compound plates were prepared by adding 90 μL of HBSS/20 mM HEPES/0.005% BSA buffer to the 2 μL of serial diluted compounds. To prepare serial diluted compounds, 20 mM stocks of compounds were dissolved in 100% DMSO. The compound dilution plate was set up as follows: well #1 received 5 μL of compound plus 10 μL of DMSO. Wells 2-10 received 10 μL of DMSO. 5 μL was mixed and transferred from well #1 into well #2. 1:3 serial dilutions were continued out 10 steps. 2 μl of diluted compound was transferred into duplicate wells of a 384 well “assay plate” and then 90 μL of buffer was added.
After incubation, both the cell and “assay plate” plates were brought to the fluorometric imaging plate reader (FLIPR®) and 20 μL of the diluted compounds were transferred to the cell plates by the FLIPR®. Plates were then incubated for 1 hour at room temperature. After the 1 hour incubation, plates were returned to the FLIPR® and 20 μL of 4.5× concentrated ligand was added to the cell plates. During the assay, fluorescence readings were taken simultaneously from all 384 wells of the cell plate every 1.5 seconds. Five readings were taken to establish a stable baseline, then 20 μL of sample was rapidly (30 μL/sec) and simultaneously added to each well of the cell plate. The fluorescence was continuously monitored before, during and after sample addition for a total elapsed time of 100 seconds. Responses (increase in peak fluorescence) in each well following agonist addition were determined. The initial fluorescence reading from each well, prior to ligand stimulation, was used as a zero baseline value for the data from that well. The responses were expressed as % inhibition of the buffer control. […]
Background: Calcium flux is commonly read through the fluorescence of an indicator in the cells.

For assay [2], the target named is T1, human CRTH2. As to the kind of experiment: Human CRTH2 Receptor Binding Assay (whole cell, [3H]ramatroban competition). Further details: two mammalian expression vectors that harbored human CRTH2 and G-alpha16 cDNAs; expressed in transfected cells. Conditions: CHO-K1 cells expressing human CRTH2 and G-alpha16; 20 nM [3H]ramatroban; 1 hour, room temperature. The text has this: A whole cell receptor binding assay using [^3H]ramatroban as the competing radioactive ligand was employed to evaluate the compound binding activity to human CRTH2. The radioactive ligand [^3H]ramatroban was synthesized according to Sugimoto et. al. (Eur. J. Pharmacol. 2005, 524, 30-37) to a specific activity of 42 Ci/mmol
A cell line stably expressing human CRTH2 was established by transfecting CHO-K1 cells with two mammalian expression vectors that harbored human CRTH2 and G-alpha16 cDNAs, respectively, using FuGene® 6 transfection reagent (from Roche). Stable clones expressing CRTH2 were selected by staining each clone with BM16 (BD Pharmingen™ from BD Biosciences, a division of Becton, Dickinson and Company), which is a rat monoclonal antibody to human CRTH2. The cells were maintained as monolayer cultures in Ham's F-12 medium containing 10% fetal bovine serum, 100 units/mL penicillin, 100 μg/mL streptomycin, 2 mM glutamine, 0.5 mg/mL G418 (geneticin) for CRTH2, and 0.2 mg/mL hygromycin-B (for G-alpha 16). For whole cell receptor binding assay, the monolayer cells were rinsed once with PBS (phosphate buffered saline), dissociated using ethylenediaminetetraacetate (Versene™ EDTA from Lonza Inc.), and suspended in PBS containing 10 mM MgCl2 and 0.06% BSA (bovine serum albumin) at 1.5×10^6 cells/mL.
The binding reactions (0.2 mL) were performed in 96-well plates at room temperature in PBS containing 1.5×10^5 cells, 10 mM MgCl2, 0.06% BSA, 20 nM [^3H]ramatroban, and test compound at various concentrations. After 1 hour of binding reactions, the cells were harvested on GF™/B filter microplates (microtiter plates with embedded glass fiber from PerkinElmer, Inc.) and washed 5 times with PBS using a Filtermate™ Harvester (a cell harvester that harvests and washes cells from microplates from PerkinElmer, Inc.). The radioactivities bound to the cells were determined using a microplate scintillation counter (TopCount® NXT, from PerkinElmer, Inc.) after adding 50 μL of Microscint™ 20 scintillation fluid (from PerkinElmer, Inc.) to each well of the filter plates. The radioactivity from non-specific binding was determined by replacing compound with 10 μM of 15(R)-15-methyl PGD2 (from Cayman Chemical Company) in the reaction mixtures. The radioactivity bound to the cells in the absence of compound (total binding) was determined by replacing compound with 0.25% of DMSO (dimethyl sulfoxide) in the reaction mixture. Specific binding data were obtained by subtracting the radioactivity of non-specific binding from each binding data.
The IC50 value is defined as the concentration of the tested compound that is required for 50% inhibition of total specific binding. In order to calculate the IC50 value, the percent inhibition data were determined for 7 concentrations for each compound. The percent inhibition for a compound at each concentration was calculated according to the following formula, [1-(specific binding in the presence of compound)/(total specific binding)]×100. The IC50 value was then obtained by fitting the percent inhibition data to a sigmoidal dose-response (4 parameter logistic) model in the XLfit® software Excel add-in program [from ID Business Solutions Ltd., model 205, where F(x)=(A+(B−A)/(1+((C/x)̂D)))].

Each structure is given as a SMILES string.

Results on 9 compounds are retold here after patent publication US20120309796A1, “BENZOCYCLOHEPTENE ACETIC ACIDS” (priority 2011, published 2012).

A word on the IC50: it is the midpoint of a concentration-inhibition curve. In the case of `O=C(O)COc1cccc2c1CCCCC2NS(=O)(=O)c1ccc(-c2cccc(CCO)c2)cn1` (stereo not drawn) [Example 37, (5-{5-[3-(2-Hydroxy-ethyl)-phenyl]-pyridine-2-sulfonylamino}-6,7,8,9-tetrahydro-5H-benzocyclohepten-1-yloxy)-acetic acid], the IC50 amounted to 0.214 µM on human CRTH2 [1] and 0.017 µM on human CRTH2 [2].
For `Cc1cncc(-c2ccc(S(=O)(=O)NC3CCCCc4c(OCC(=O)O)cccc43)cc2)c1` (stereo not drawn) [Example 25, {5-[4-(5-Methyl-pyridin-3-yl)-benzenesulfonylamino]-6,7,8,9-tetrahydro-5H-benzocyclohepten-1-yloxy}-acetic acid], the IC50 is 0.123 µM at human CRTH2 [1] and 0.0337 µM at human CRTH2 [2].
Turning to `O=C(O)COc1cccc2c1CCCCC2NS(=O)(=O)c1cc(Br)cc(C(F)(F)F)c1` (stereo not drawn) [Example 8, [5-(3-Bromo-5-trifluoromethyl-benzenesulfonylamino)-6,7,8,9-tetrahydro-5H-benzocyclohepten-1-yloxy]-acetic acid], the concentration for half-maximal inhibition (IC50) came out at 0.0366 µM on human CRTH2 [1] and 0.047 µM at human CRTH2 [2].
In the case of `O=C(O)COc1cccc2c1CCCCC2NS(=O)(=O)c1ccc(-c2cccc(C(F)(F)F)c2)cn1` (stereo not drawn) [Example 33, {5-[5-(3-Trifluoromethyl-phenyl)-pyridine-2-sulfonylamino]-6,7,8,9-tetrahydro-5H-benzocyclohepten-1-yloxy}-acetic acid], the IC50 turned out to be 0.0292 µM at human CRTH2 [1] and 0.178 µM on human CRTH2 [2].
In the case of `O=C(O)COc1cccc2c1CCCCC2NS(=O)(=O)c1ccc(-c2ccccc2)cc1` (stereo not drawn) [Example 4, [5-(Biphenyl-4-sulfonylamino)-6,7,8,9-tetrahydro-5H-benzocyclohepten-1-yloxy]-acetic acid], the IC50 at human CRTH2 [1] came to 0.255 µM; at human CRTH2 [2], 0.0336 µM.
Turning to `O=C(O)COc1cccc2c1CCCCC2NS(=O)(=O)c1ccc(-c2ccc(O)cc2)cc1` (stereo not drawn) [Example 23, [5-(4′-Hydroxy-biphenyl-4-sulfonylamino)-6,7,8,9-tetrahydro-5H-benzocyclohepten-1-yloxy]-acetic acid], the IC50 on human CRTH2 [1] turned out to be 0.0421 µM; on human CRTH2 [2], 0.103 µM.
The corresponding values for `Cc1cc(-c2ccc(S(=O)(=O)NC3CCCCc4c(OCC(=O)O)cccc43)nc2)cc(C(C)(C)C)c1` (stereo not drawn) [Example 35, {5-[5-(3-tert-Butyl-5-methyl-phenyl)-pyridine-2-sulfonylamino]-6,7,8,9-tetrahydro-5H-benzocyclohepten-1-yloxy}-acetic acid] are 0.14 µM and 0.0179 µM.
The corresponding values for `CN(C1CCCCc2c(OCC(=O)O)cccc21)S(=O)(=O)c1cc(Br)cc(C(F)(F)F)c1` (stereo not drawn) [Example 9, {5-[(3-Bromo-5-trifluoromethyl-benzenesulfonyl)-methyl-amino]-6,7,8,9-tetrahydro-5H-benzocyclohepten-1-yloxy}-acetic acid] are 0.0061 µM and 0.0574 µM.
Turning to `CN(C1CCCCc2c(OCC(=O)O)cccc21)S(=O)(=O)c1ccc(-c2cccc(C(F)(F)F)c2)cn1` (stereo not drawn) [Example 34, (5-{Methyl-[5-(3-trifluoromethyl-phenyl)-pyridine-2-sulfonyl]-amino}-6,7,8,9-tetrahydro-5H-benzocyclohepten-1-yloxy)-acetic acid], the concentration for half-maximal inhibition (IC50) at human CRTH2 [1] is 4.31 µM; on human CRTH2 [2] it was 0.457 µM.
